Test results published in US11752162B2, “Compounds and compositions for treating solid tumors by intratumoral administration” (Novartis AG, priority 2017, dated 2023).

How the values were obtained:
[1] = Extent of Compound 15 binding to Alhydrogel (% bound) in the suspension; type: physicochemical; details: for % bound (Compound 15 adsorbed to aluminum hydroxide): 100 mM Tris buffer (pH 7.4)
Method: In the preparation of the Compound 15/Alhydrogel® suspension used in the Examples herein, the stock suspension of Alhydrogel® was filtered by gravity filtration through a 100 μm cell strainer before mixing with stock solution comprising Compound 15. The resulting mixture/suspension was stirred for 5 minutes to allow Compound 15 to adsorb/bind to the aluminum of Alhydrogel®.
To determine the extent of Compound 15 binding to Alhydrogel® (i.e. % bound) in the Compound 15/Alhydrogel® suspension used in the Examples herein, aliquots of the suspension were centrifuged to pellet the bound Compound 15/Alhydrogel® (e.g. 21,000×g for 10 min), and the amount of free Compound 15 in the supernatant was analyzed by HPLC/UV or LC/MS/MS.

[2] = Adsorption of compounds to aluminum hydroxide in histidine buffer (pH 6.8); type: physicochemical; details: histidine buffer pH 6.8, 0.1 mg/mL compound, 37° C. 5 hours
Method: The resulting solution was diluted 10-fold with blank histidine buffer to a final compound concentration of 0.1 mg/mL. Diluted solutions were incubated at 37° C. for 5 hours. The samples were centrifuged at 14,000 rpm for 10 minutes to pellet the insoluble. The supernatant (along with an internal standard) was then evaluated by LC-MS/MS using a ballistic gradient (from 5% CH3CN-0.5% formic acid to 95% CH3CN-1.0% formic acid in 3.5 minutes) on a Waters Atlantis dC18 (50 mm×2.1 mm) column at room temperature against a calibration curve prepared at known compound concentrations ranging from 0.005 to 50 μM. The concentration in the supernatant was calculated as % unbound to aluminum hydroxide compared to control; the % bound to aluminum hydroxide was calculated as 100% minus % unbound.

[3] = female, C57/BL6, mouse, in vivo, iv, 2 mg/kg
in vivo = details: female, C57/BL6, mouse, iv, 2 mg/kg
human TLR7 = target: T1, human TLR7 (Homo sapiens, UniProt Q9NYK1); assay: TLR7 reporter gene assay (NF-kB-driven luciferase) in HEK293 cells
T1 sequence (Q9NYK1 27-1049): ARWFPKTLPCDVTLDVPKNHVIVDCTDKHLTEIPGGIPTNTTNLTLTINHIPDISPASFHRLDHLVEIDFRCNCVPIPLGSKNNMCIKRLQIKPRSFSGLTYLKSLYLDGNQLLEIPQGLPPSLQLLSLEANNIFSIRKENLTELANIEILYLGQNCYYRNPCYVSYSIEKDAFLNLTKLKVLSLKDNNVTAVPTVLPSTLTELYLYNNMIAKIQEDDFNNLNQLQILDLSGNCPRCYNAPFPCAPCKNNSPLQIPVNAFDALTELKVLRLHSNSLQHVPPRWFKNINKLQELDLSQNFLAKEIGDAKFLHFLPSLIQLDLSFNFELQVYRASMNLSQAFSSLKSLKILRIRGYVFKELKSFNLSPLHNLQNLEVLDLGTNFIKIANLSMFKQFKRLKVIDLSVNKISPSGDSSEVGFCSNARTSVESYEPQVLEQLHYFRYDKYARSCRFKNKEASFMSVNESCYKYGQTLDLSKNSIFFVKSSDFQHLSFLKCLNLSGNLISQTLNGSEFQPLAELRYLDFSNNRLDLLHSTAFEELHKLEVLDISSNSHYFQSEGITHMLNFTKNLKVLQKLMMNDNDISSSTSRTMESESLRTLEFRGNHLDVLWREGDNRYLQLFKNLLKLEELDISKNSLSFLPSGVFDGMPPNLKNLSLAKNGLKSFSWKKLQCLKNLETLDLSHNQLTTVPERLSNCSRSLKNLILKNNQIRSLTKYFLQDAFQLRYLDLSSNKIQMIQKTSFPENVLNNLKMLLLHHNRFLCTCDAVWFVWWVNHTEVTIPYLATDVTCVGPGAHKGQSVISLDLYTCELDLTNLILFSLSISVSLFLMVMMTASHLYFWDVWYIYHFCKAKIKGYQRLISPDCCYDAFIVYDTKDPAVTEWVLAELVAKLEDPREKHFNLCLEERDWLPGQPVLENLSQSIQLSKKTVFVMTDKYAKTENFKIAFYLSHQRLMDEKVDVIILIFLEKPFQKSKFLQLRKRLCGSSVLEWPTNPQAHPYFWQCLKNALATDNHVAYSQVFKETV

Cc1cc(OCCOCCC(F)(F)P(=O)(O)O)ccc1CCc1cnc2c(N)nc3cc(CCC(=O)O)ccc3c2c1 [Compound 15, 3-(5-amino-2-(4-(2-(3,3-difluoro-3-phosphonopropoxy)ethoxy)-2-methylphenethyl)benzo[f][1,7]naphthyridin-8-yl)propanoic acid]
% bound (Compound 15 adsorbed to aluminum hydroxide) ([1]; 50 μg dose formulation, 1:2.5 w/w ratio): 91% | % bound (Compound 15 adsorbed to aluminum hydroxide) ([1]; 200 μg dose formulation, 1:2.5 w/w ratio): 94% | % bound (Compound 15 adsorbed to aluminum hydroxide) ([1]; 600 μg dose formulation, 1:2.5 w/w ratio): 97% | % bound (Compound 15 adsorbed to aluminum hydroxide) ([1]; 50 kg/50 μg (so in the source) dose formulation, 1:20 w/w ratio): 98% | % bound (Compound 15 adsorbed to aluminum hydroxide) ([1]; 600 kg (so in the source) dose formulation, 1:1.7 w/w ratio): 98% | % bound (Compound 15/aluminum hydroxide) ([1]; fixed ratio of 1:1.5 w/w, A20 study formulation): 97% | % Bound [2]: 96.0% | plasma clearance as % of mouse liver blood flow [3]: ~20% | MRT (in vivo): 10.2 min | clearance (in vivo): 18.1 mL/min/kg | half-life (in vivo): 60 min | EC50 (human TLR7): 96 nM
